# Test results: patent US6485975B1, “Method for regenerating viable and fertile citrus plants by tissue culture from explants” (Council of Scientific and Industrial Research, priority 2000, dated 2002)
# Several values for one entry are separate records, joined by “and”; a condition that tells them apart may be missing. Equal entries are not always repeated.
# Tests used:
# [1] = tested on: isolated shoots of C. sinensis; assay: Proliferation of isolated shoots of C. sinensis; type: cell-based, Citrus sinensis; details: for Condition of shoots / Growth of regenerated shoots Length in cm: 30 days; for No. of off-shoots regenerated: culture period 30 days, mean of 5 cultures ± S.E.
# Text: (§1) g) proliferating the meristem-regenerated 1.5-cm-long shoots of C. aurantifolia and C. sinensis by repeated subculture in medium-A and medium-B, respectively to obtain well-developed shoots to the extent of an average 10 shoots and 6 shoots, respectively, within 4 subcultures of 30 days each,
# (§2) Proliferation of Isolated Shoots Obtained from Regenerated Nodal Stem Segments of Mature Field-grown Trees of Citrus aurantifolis and C. sinensis
# (§3) Proliferation of isolated shoots was obtained in presence of BAP and an auxin, LAA or NAA employing the medium-A (Table I) for C. aurantifolia, and medium-B (Table I) for C. sinensis, but not vice-versa, where both media A and B, devoid of growth hormones comprised the basal media. […] Responses of the isolated shoots to some selected combinations of BAP with IAA or NAA are given in the Table 1, which lead to the selection of specific nutrient media for optimum proliferation of shoots of these two Citrus species.
# Likewise, 0.25 mg 1^−1 concentration of BAP and 0.5 mg 1^−1 of NAA were selected comprising the medium-B for optimum proliferation of shoots of C. sinensis in view of the same two criteria, viz., moderately high number of offshoot production with good growth and their differentiation without any intervening callusing.
# [2] = tested on: isolated shoots of Citrus aurantifolia; assay: Proliferation of isolated shoots of Citrus aurantifolia; type: cell-based; details: for Condition of shoots / Growth of regenerated shoots Length in cm: 30 days; for No. of off-shoots regenerated: culture period 30 days, mean of 5 cultures ± S.E.
# Text: as §1, §2, §3
# The maximum number of offshoots produced per explant of a shoot tip of C. aurantifolia was 7 in 0.75 mg 1^−1 BAP and 0.25 mg 1^−1 IAA, however, the shoots not only were restricted in growth, but also substantial intervening callus was formed. Similarly, in the concentrations of 0.5 and 1.0 mg 1^−1 BAP, particularly the second aspect of response remained equally prominent, i.e., growth restriction of offshoots and intervening callusing during their differentiation. […] Thus, the 0.25 mg 1^−1 concentration of both BAP and IAA was selected comprising the medium-A for proliferation of isolated shoots originally regenerated from nodal stem segments of mature field-grown trees of C. aurantifolia.
# [3] = tested on: excised shoot meristems of Citrus aurantifolia and C. sinensis; assay: Growth of excised shoot meristems, both Citrus species not distinguished; type: cell-based
# Text: e) excising the meristem domes along with youngest 2-3 leaf primordia ranging in length between 0.2-0.5 mm from the aseptically grown shoots followed by their culture on the liquid medium-C under the same controlled light and temperature conditions as in step (c) at least for a period of 15 days to let them attain a length of ca. 8 mm, f) subculturing the meristem-regenerated shoots on filter paper bridge employing liquid medium-D in order to obtain healthy shoots of an average length of about 1.5 cm without intervening callusing within a period of 20-25 days, Since for growth, an excised shoot meristem may require exogenous supply of mainly three growth hormones, viz., a cytokinin, an auxin and a gibberellin, these were provided individually at 3 concentrations (mg 1^−1) each and in certain combinations as given below using the medium-C (Table I) devoid of IAA and GA as the basal medium: 0.1 BAP; 0.25 BAP; 0.5 BAP; 0.1 IAA; 0.25 IAA; 0.5 IAA: 5 GA; 10 GA; 15 GA; 0.1 BAP+0.1 IAA; 0.25 BAP+0.1 IAA; 0.5 BAP+0.1 IAA; 5 GA+0.1 IAA; 10 GA+0.1 IAA and 15 GA+0.1 IAA. […] In the next step, on the basis of the responses obtained, shoot meristems were cultured in all the afore-said 3 concentrations of BAP (0.1, 0.25 and 0.5 mg 1^−1) or GA (5, 10 and 15 mg 1^−1) along with 0.1 mg 1^−1 IAA. […] In this treatment, growth of meristem on nutrient agar as well as in liquid medium using filter paper bridge was compared. Shoot meristems grew far better on filter paper bridge than on nutrient agar in the same treatment (table 3). […] Higher or lower than 0.1 mg 1^−1 concentrations of BAP were not conducive to normal growth of shoot meristems.
# [4] = tested on: meristem-regenerated shoots of Citrus aurantifolia; assay: Root induction in meristem-regenerated shoots of Citrus aurantifolia; type: cell-based; details: 0.25 mg l^-1 of the auxin, used with 1 mg l^-1 chlorogenic acid
# Text: (§4) h) rooting of the isolated well-developed shoots of C. aurantifolia to the extent of 100% in 15 days, and of C. sinensis to the extent of 90% in 25 days, in agarified media-E and F respectively.
# The meristem-regenerated well-developed shoots of C. aurantifolia easily rooted in medium-E (Table I) selected on the basis of the formulations used earlier during the investigations on Citrus tissue culture in this Laboratory (Chaturvedi, H. C. 1979. Tissue culture of economic plants. In: Progress in Plant Research. Eds. T. N. Khoshoo and P. K. K. Nair, Today and Tomorrow's Publisher, New Delhi, Vol.1, pp.265-288; Chaturvedi, H. C. and Sharma, A. K. 1988. Citrus tissue culture. In: Proc. Natl. Seminar on Plant Tissue Culture, I.C.A.R., New Delhi, pp.36-46). The basic differences of the root inducing media from the shoot proliferation media of Citrus are, comparatively lower concentrations of nitrogen, calcium and magnesium in the former. […] Even its shoots raised from seedling explants have been reported to be intractable-to-root in vitro (Duran-vila, N., Ortega, V. and Navarro, L. 1989. Morphogenesis and tissue cultures of three citrus species. Plant Cell, Tissue and Organ Culture, 16: 123-133).
# [5] = tested on: meristem-regenerated shoots of C. sinensis; assay: Root induction in meristem-regenerated shoots of C. sinensis; type: cell-based, Citrus sinensis; details: same treatments as for C. aurantifolia (0.25 mg l^-1 auxin, 1 mg l^-1 chlorogenic acid)
# Text: as §4
# The medium-E, which was found effective for inducing desirable rooting in a number of Citrus species, including its rootstocks, when was found deficient for promoting root induction in the presence of multiple combinations of auxins, viz., IAA. IPA, IBA and NAA without or with phenolic acids, namely, phloroglucinol and chlorogenic acid, it was variously modified. The modifications included, increase in the concentrations of thiamine-HCl, pyridoxine-HCl and nicotinic acid to 2.5, 0.5 and 0.5 mg 1^−1, respectively, addition of some other root promoting vitamins, like, riboflavin, folic acid and d-biotin at the concentration of 0.1 mg 1^−1 each as also 15 mg 1^−1 L-arginine.
# The rooting responses of well-developed isolated shoots of C. sinensis to various auxins used without and with phenolic acids employing the medium-E (Table I) devoid of auxins and the phenolic acid as the basal medium, are presented in Table 3. A combination of three auxins, namely, IAA, NAA and IPA along with a phenolic acid, namely, chlorogenic acid or phloroglucinol was essential for root induction.
# [6] = BAP (0.1, 0.25, 0.5 mg l^-1) or GA (5, 10, 15 mg l^-1) along with 0.1 mg l^-1 IAA
# [7] = individually at lower concentrations: IAA 0.1 mg l^-1 or GA 5 mg l^-1
compound,measurement,setting,value
"c1ccc(CNc2ncnc3nc[nH]c23)cc1 [BAP, 6-benzylaminopurine]",Condition of shoots,[1]; BAP 0.1 mg l^-1 with 0.5 NAA,A few well-
same,Growth of regenerated shoots Length in cm,[1]; BAP 0.1 mg l^-1 with 0.5 NAA,1.16 ± 0.27 cm
same,No. of off-shoots regenerated,[1]; BAP 0.1 mg l^-1 with 0.5 NAA,1.8 ± 0.37
same,Condition of shoots,[1]; BAP 0.25 mg l^-1 with 0.5 NAA,Well-developed
same,Growth of regenerated shoots Length in cm,[1]; BAP 0.25 mg l^-1 with 0.5 NAA,1.65 ± 0.20 cm
same,No. of off-shoots regenerated,[1]; BAP 0.25 mg l^-1 with 0.5 NAA,2.6 and 2.6 ± 0.24
same,Condition of shoots,[1]; BAP 0.5 mg l^-1 with 0.5 NAA,Well-developed
same,Growth of regenerated shoots Length in cm,[1]; BAP 0.5 mg l^-1 with 0.5 NAA,1.08 ± 0.12 cm
same,No. of off-shoots regenerated,[1]; BAP 0.5 mg l^-1 with 0.5 NAA,3.4 ± 0.44
same,Growth of regenerated shoots Length in cm,[1]; BAP 0.75 mg l^-1 with 0.5 NAA,0.78 ± 0.10 cm
same,No. of off-shoots regenerated,[1]; BAP 0.75 mg l^-1 with 0.5 NAA,3.2 ± 0.73
same,Growth of regenerated shoots Length in cm,[1]; BAP 1.0 mg l^-1 with 0.5 NAA,0.75 ± 0.08 cm
same,No. of off-shoots regenerated,[1]; BAP 1.0 mg l^-1 with 0.5 NAA,2.0 ± 0.31
same,Condition of shoots,[2]; BAP 0.1 mg l^-1 with 0.25 IAA,A few well-develop-
same,Growth of regenerated shoots Length in cm,[2]; BAP 0.1 mg l^-1 with 0.25 IAA,1.44 ± 0.14 cm
same,No. of off-shoots regenerated,[2]; BAP 0.1 mg l^-1 with 0.25 IAA,3.6 ± 0.40
same,Condition of shoots,[2]; BAP 0.25 mg l^-1 with 0.25 IAA,Well-developed
same,Growth of regenerated shoots Length in cm,[2]; BAP 0.25 mg l^-1 with 0.25 IAA,1.40 ± 0.13 cm
same,No. of off-shoots regenerated,[2]; BAP 0.25 mg l^-1 with 0.25 IAA,5.8 and 5.8 ± 0.58
same,Growth of regenerated shoots Length in cm,[2]; BAP 0.5 mg l^-1 with 0.25 IAA,0.99 ± 0.10 cm
same,No. of off-shoots regenerated,[2]; BAP 0.5 mg l^-1 with 0.25 IAA,5.4 ± 1.02
same,Growth of regenerated shoots Length in cm,[2]; BAP 0.75 mg l^-1 with 0.25 IAA,0.86 ± 0.08 cm
same,No. of off-shoots regenerated,[2]; BAP 0.75 mg l^-1 with 0.25 IAA,7 and 7.0 ± 0.44
same,Growth of regenerated shoots Length in cm,[2]; BAP 1.0 mg l^-1 with 0.25 IAA,0.76 ± 0.10 cm
same,No. of off-shoots regenerated,[2]; BAP 1.0 mg l^-1 with 0.25 IAA,5.6 ± 1.40
same,response of shoot meristems,[3]; [6],became abnormally thick
same,delay of necrosis of shoot meristem,"[3]; BAP individually, particularly 0.1 mg l^-1",10 to 15 days
"C=C1C[C@]23C[C@@]1(O)CC[C@H]2[C@@]12C=C[C@H](O)[C@@](C)(C(=O)O1)[C@H]2[C@@H]3C(=O)O [GA, gibberellic acid]",response of shoot meristems,[3]; [6],registered some growth
same,response of shoot meristems,[3]; [7],remained fresh with a little increase in their length
"O=C(O)Cc1c[nH]c2ccccc12 [IAA, indole-3-acetic acid]",rooting,[4],Hundred percent
same,rooting,[5],did not root
same,response of shoot meristems,[3]; [7],remained fresh with a little increase in their length
"O=C(O)CCCc1c[nH]c2ccccc12 [IBA, indole-3-butyric acid]",rooting,[4],Hundred percent
same,rooting,[5],did not root
"O=C(O)CCc1c[nH]c2ccccc12 [IPA, indole-3-propionic acid]",rooting,[4],Hundred percent
same,rooting,[5],did not root
"O=C(O)Cc1cccc2ccccc12 [NAA, α-naphthalene-acetic acid]",rooting,[4],Hundred percent
same,rooting,[5],did not root
